Data taken from paper PMC7579906, “Discovery of a dual inhibitor of NQO1 and GSTP1 for treating glioblastoma” (Journal of Hematology & Oncology, 2020).

How the values were obtained:
U87MG cells = assay: Cell proliferation (MTT) assay, parental U87MG; type: cell-based; details: Homo sapiens, U-87 MG, inhibition of cell proliferation/viability
Procedure: (§1) The human glioblastoma cell line U87MG was stably transfected with vector control, pLHCX-EGFRvIII, pGFP-NQO1 and pRS-GSTP1, which were supplemented with various antibiotics. For EGFRvIII, 150 μg/mL of hygromycin was used; for pGFP-NQO1 and pRS-GSTP1, 0.7 μg/mL of puromycin was employed. The cells were supplemented with 10% fetal bovine serum (Hyclone, USA), penicillin (100 U/ml) and streptomycin (100 U/ml) (ABAM Life Technologies, USA) in a humidified incubator with 5% CO2 at 37 °C.
(§2) In vitro assessment was implemented for cell proliferation using the 3-(4, 5- dimethylthiazol- 2-yl)-2,5-diphenyltetrazolium bromide (MTT) assay. After different treatments with specific time periods, 10 μL of MTT (5 mg/mL in PBS, Sigma, USA) was added to each well and the plates were incubated for 3 h at 37 °C. The resulting formazan product was dissolved with DMSO. The absorbance at a wavelength of 490 nm was recorded using a microplate reader (BioTek Instruments Inc., USA).

U87MG/EGFRvIII cells = assay: Cell proliferation (MTT) assay, U87MG/EGFRvIII; type: cell-based, human; details: Homo sapiens, U-87 MG; inhibition of cell proliferation/viability; MNPC treated 72 h
Procedure: as §1, §2

Compound	IC50 (U87MG cells)	IC50 (U87MG/EGFRvIII cells)
Cc1ccc(-c2csc(NC(=O)c3cccc4ccccc34)n2)c(C)c1 [Compound 24]	24.5 µM	1.34 µM
CCc1cc(C(=O)Nc2nc(-c3ccc(C)c(C)c3)c(C)s2)cs1 [Compound 23]	29.1 µM	2.22 µM
O=C(Nc1ncc([N+](=O)[O-])s1)c1ccccc1O [TIZ, tizoxanide, reference compound]	82.9 µM	22.4 µM
Cc1ccc(C)c(-c2csc(NC(=O)c3ccc(-c4ccccc4)cc3)n2)c1 [Compound 21]	16.6 µM	1.67 µM
CC(=O)Oc1ccccc1C(=O)Nc1ncc([N+](=O)[O-])s1 [NTZ, nitazoxanide, reference compound]	66.7 µM	19.4 µM
Cc1ccc(C(=O)Nc2nc(-c3ccccc3)c(C)s2)cc1 [Compound 22]	11.2 µM	2.42 µM
